# In patent US20060251659A1, “Method for screening molecules that restore NOD1 activity in cells containing an NOD2 mutation that reduces or eliminates NOD1 activity” (priority 2005, published 2006):
# “Also recorded” adds a separate entry of the source.
# Columns and labels:
# [1] = molecular target: T1, Nod2 (Homo sapiens, UniProt Q9HC29); experiment: Nod2-dependent NF-κB luciferase reporter activation in transfected HEK293T cells; assay type: cell-based; conditions: for activation of Nod2 (NF-κB-driven luciferase reporter): muramyl peptides 10 nM up to 250 nM, HEK293T cells expressing Nod2, 24 h
# T1 construct: expressed in transfected cells; host or cells: HEK293T
# T1 sequence (Q9HC29 whole entry): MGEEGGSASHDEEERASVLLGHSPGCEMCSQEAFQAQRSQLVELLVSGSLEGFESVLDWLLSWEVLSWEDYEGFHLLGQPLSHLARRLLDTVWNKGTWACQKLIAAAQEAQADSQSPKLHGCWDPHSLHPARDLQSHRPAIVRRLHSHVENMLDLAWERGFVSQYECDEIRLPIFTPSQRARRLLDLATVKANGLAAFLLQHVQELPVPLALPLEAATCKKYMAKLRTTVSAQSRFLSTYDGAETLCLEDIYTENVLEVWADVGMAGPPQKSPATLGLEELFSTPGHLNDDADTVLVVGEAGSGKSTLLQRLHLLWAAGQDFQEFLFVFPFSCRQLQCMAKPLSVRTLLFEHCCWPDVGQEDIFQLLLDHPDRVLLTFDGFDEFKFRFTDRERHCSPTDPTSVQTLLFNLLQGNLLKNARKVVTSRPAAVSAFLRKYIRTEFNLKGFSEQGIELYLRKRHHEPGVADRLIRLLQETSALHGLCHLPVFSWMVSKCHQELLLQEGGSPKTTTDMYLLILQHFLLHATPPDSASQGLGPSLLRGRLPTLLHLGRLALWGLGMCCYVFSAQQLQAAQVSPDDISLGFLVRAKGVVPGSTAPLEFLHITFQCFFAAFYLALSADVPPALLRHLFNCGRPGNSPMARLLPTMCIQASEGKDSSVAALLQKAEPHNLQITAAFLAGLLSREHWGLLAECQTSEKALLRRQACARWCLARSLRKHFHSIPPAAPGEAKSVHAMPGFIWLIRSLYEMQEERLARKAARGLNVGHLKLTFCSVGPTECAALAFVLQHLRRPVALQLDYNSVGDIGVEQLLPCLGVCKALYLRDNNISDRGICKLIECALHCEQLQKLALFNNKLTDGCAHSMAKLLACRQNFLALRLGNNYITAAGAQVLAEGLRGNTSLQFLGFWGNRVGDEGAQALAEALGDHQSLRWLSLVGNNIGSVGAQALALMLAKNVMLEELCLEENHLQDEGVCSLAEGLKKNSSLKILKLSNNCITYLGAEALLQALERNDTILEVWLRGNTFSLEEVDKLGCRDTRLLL
# Method: FIG. 1. Detection of MDP-derived muramyl peptides by Nod2. A, schematic representation of the muramyl peptides used in this study. B, Human HEK293 epithelial cells were transfected with several muramyl peptides (MDP, M-TriLys, Anh-M-TriLys, M-TetraLYS and Anh-M-TetraLYS) at the following concentrations: 10 nM (white bars), 50 nM (grey bars) or 250 nM (black bars) in the presence of an expression vector for Nod2 . The activity of a NF-κB-driven luciferase reporter gene was measured, and Nod2-dependent activation of the reporter gene in the presence of muramyl peptides was reported to the one obtained without stimulation with muramyl peptides. […] Experiments were performed three times with similar results.
# In search for MDP-derived muramyl peptides that could stimulate the Nod2 signaling pathway, the inventors generated several molecules differing in the length of their peptidic moiety, including M-TriLys and M-TetraLys (FIG. 1A). These molecules were then tested for their ability to activate Nod2 using co-transfection assays in HEK293T epithelial cells and measuring NF-κB activity as a read-out (FIG. 1B). […] Here, a larger range of muramyl peptide concentration was used (10 nM up to 250 nM) to allow for the identification of even weak inducers of the Nod2 pathway.
# HEK293T cells were cultured in DMEM containing 10% fetal calf serum. Prior to transfection, HEK293T cells were seeded into 24 well plates at a density of 1×10^5 cells/ml as described previously (26), MDP LD was from Calbiochem and reported to be 98% pure by TLC.
# The expression plasmid for Nod2 has been previously described (27). The NF-κB luciferase reporter plasmid was from Stratagene. Transfections were carried out in […] cells as previously described (26).
# Studies examining the synergistic activation of NF-κB by muramyl peptides in cells over expressing Nod2 were carried out as originally described by Inohara et al. (28). Briefly, HEK293T cells were transfected overnight with 10 ng of Nod2 plus 75 ng of NF-κB luciferase reporter plasmid. At the same time, muramyl peptides were added to cell culture medium and the synergistic NF-κB-dependent luciferase activation was then measured following 24 h of co-incubation. NF-κB-dependent luciferase assays were performed in duplicate and data represent at least 3 independent experiments.
# [2] = system: PBMCs from healthy donors; experiment: Cytokine response of PBMCs from healthy donors (CTR); assay type: cell-based, human; conditions: 50 nM, overnight (18 hours)
# Method: (§1) FIG. 2. Response to muramyl peptides of PBMCs from healthy donors (CTR), Crohn's disease patients without defects in Nod2 (Crohn's) or Crohn's disease patients homozygous for the frameshift mutation (Nod2 fs). IL-1β, TNF and IL-10 were measured from the cell culture medium. Intracellular IL-1α was measured from cell lysates. All muramyl peptides (all 50 nM) were added directly to the cell culture medium for 18 hours.
# as §1, with “3.” for “2.”, “peptidoglycans” for “muramyl peptides”, “(Nod2fs).” for “(Nod2 fs).”, “at 1 μg/ml) and LPS (100 ng/ml)” for “50 nM)”
# (§2) FIG. 5. Analysis of the synergistic activation of PBMCs by M-TriDAP plus either LPS or LTA. PBMCs from healthy donors (CTR), Crohn's disease patients without defects in Nod2 (Crohn's) or Crohn's disease patients homozygous for the frameshift mutation (Nod2 fs) were analyzed. Cells were stimulated either with M-TriDAP (MTP(DAP) on the figure), LPS or LTA alone or in combination; LPS+M-TriDAP or LTA+M-TriDAP with the agonists added simultaneously, IL-1β, TNF and IL-10 were measured from the cell culture medium. Intracellular IL-1α was measured from cell lysates, LPS (40 pg/ml), LTA (5 μg/ml) and M-TriDAP (50 nM) were added directly to the cell culture medium for 18 hours.
# (§3) The six muramyl peptides characterized above (MDP, M-TriLys, M-TetraLys, anhydro-M-TriLys, anhydro-M-TetraLys and M-TriDAP) were used to stimulate PBMCs obtained from human blood. PBMCs from three groups of individuals were collected: healthy donors (CTR), Crohn's disease patients without Nod2 mutations (Crohn) and Crohn's disease patients carrying homozygous Nod2fs frameshift mutation (Nod2fs). […] IL-1β, IL-10 and TNFα were measured in the supernatant, while intracellular IL-1α was measured from cell lysates (FIG. 2). […]
# [3] = system: PBMCs from Crohn's disease patients without Nod2 mutations; experiment: Cytokine response of PBMCs from Crohn's disease patients without Nod2 mutations; assay type: cell-based, human; conditions: PBMCs from non-Nod2 Crohn's disease patients; 50 nM; overnight (18 hours)
# Method: as §1
# as §1, with “3.” for “2.”, “peptidoglycans” for “muramyl peptides”, “(Nod2fs).” for “(Nod2 fs).”, “at 1 μg/ml) and LPS (100 ng/ml)” for “50 nM)”
# as §2, §3
# [4] = system: PBMCs from Nod2fs patients; experiment: Cytokine response of PBMCs from Crohn's disease patients homozygous for the Nod2fs frameshift mutation; assay type: cell-based, human; conditions: 50 nM, overnight (18 hours)
# Method: as §1
# as §1, with “3.” for “2.”, “peptidoglycans” for “muramyl peptides”, “(Nod2fs).” for “(Nod2 fs).”, “at 1 μg/ml) and LPS (100 ng/ml)” for “50 nM)”
# as §2, §3
Compound,activation of Nod2 (NF-κB-driven luciferase reporter) [1],"cytokine response (IL-1β, IL-10, TNFα, intracellular IL-1α) to muramyl peptides [2]","cytokine response (IL-1β, IL-10, TNFα, intracellular IL-1α) to muramyl peptides [3]","cytokine response (IL-1β, IL-10, TNFα, intracellular IL-1α) to muramyl peptides [4]","concentration at which activation of Nod2 was maximal ([1]; HEK293T co-transfection, NF-κB read-out, 10 pmoles per milliliter of culture medium)"
diaminopimelic acid (DAP)-containing muramyl tripeptide [M-TriDAP],failed to activate Nod2,efficiently stimulated; also recorded: globally as potent as MDP,efficiently stimulated; also recorded: globally as potent as MDP,failed to induce cytokine response; also recorded: unable to stimulate,
"CC(=O)N[C@H]1C(O)O[C@H](CO)[C@@H](O)[C@@H]1O[C@H](C)C(=O)N[C@@H](C)C(=O)N[C@H](CCC(=O)O)C(N)=O (mixture of isomers) [MDP, muramyl dipeptide]",activated Nod2 with similar efficiency,potent activators,still reacted,not stimulated,10 nM
M-TriLys,activated Nod2 with similar efficiency,potent activators,still reacted,not stimulated,
